This assay relates to TNF-α. As to the kind of experiment: Cytokine ELISA in CIA mice, day 60: TNF-α. It is filed as in vivo. The source says: With continued reference to FIG. 1, in some embodiments, administration 116 may be done to an animal. As a non-limiting example, the animal may include a mouse, a fish, a rabbit, human, and the like. As a non-limiting example, administration 116 of composition of the engineered virus-based nanoparticle for a treatment of an autoimmune condition may be done to dilute, brown, and non-agouti (DBA) mice based on their susceptibility to collagen-induced arthritis (CIA). Female DBA/1 mice 6 to 8 weeks of age may be maintained under specific pathogen-free conditions. CIA may be induced by the intradermal tail base injection of 100 μg of chicken type II collagen (Sigma-Aldrich) as previously described. Five mice per group may be immunized on days 0 and 21 to induce arthritis. The onset of disease may be confirmed on the day that swelling or erythema may be observed in any paw, typically 4 to 10 days after the second immunization. […] CIA may be assessed using a macroscopic score system based on the visual identification of arthritic limbs. The clinical severity of arthritis may be evaluated as follows: Each mouse may be inspected every 2 to 3 days for three different parameters: (i) swelling of the hind ankle and foot, measured with calipers; (ii) erythema of each leg; and (iii) swelling of the fingers. The RA index for each mouse was expressed as the mean of the three scores from the individual parameters. At the end of the experiment (60 days), we determined the proportion of CD25+Foxp3+ cells in the lymph nodes and measured cytokine titers in the lymph nodes, joints, and serum.
With continued reference to FIG. 1, in some embodiments, processor 104 may determine critical administration 124 as a function of a cytokine profile and a proportion of CD25^+ Foxp3^+ cells. […] In some embodiments, to quantify cytokines in DBA mice, joint tissues may be pulverized and resuspended in 1 ml of lysis medium per 100-mg joint weight for 60 min at 37′C, followed by centrifugation to remove debris. […]

In the case of `C[C@@H]1C[C@H]2[C@@H]3CCC4=CC(=O)C=C[C@]4(C)[C@@]3(F)[C@@H](O)C[C@]2(C)[C@@]1(O)C(=O)CO` [Dexamethasone, dexamethasone], the “TNF-α J” value (joint supernatant, CIA mice, day 60, mean n=3) was found to be 49.20 pg/mL. The “TNF-α LN” value (lymph node supernatant, CIA mice, day 60, mean n=3) was found to be 107.90 pg/mL. Further, the “TNF-α S” value (serum pooled from five CIA mice, day 60) came out at 24.2 pg/mL.

For the origin of these results see patent US12527849B2, “Apparatus for determining administration form of a composition of an engineered virus-based nanoparticle for a treatment of an autoimmune condition” (Diamante Srl, priority 2021, dated 2026).
